For 16 molecules, IC50 results are on record in US20230322767A1, “ARYL SUBSTITUTED PYRROLO-PYRIDINONES AND THERAPEUTIC USES THEREOF” (Bayer Aktiengesellschaft, priority 2020, published 2023).

What all share (type): biochemical
One assay concerns the target CSNK1A1 (Homo sapiens (Human), UniProt P48729). Description: CSNK1A1 Assay 2 (ADP-Glo, 1 μM ATP). The note with it: median, read-out: CSNK1A1 Assay 2 IC50 [mol/l] (median). In short, it runs like this:
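Enzyme (~0.0375 ng/μL) preincubated 15 min at 22° C with compound in HEPES pH 7.5 buffer, then reacted with 1 μM ATP and biotin-Ahx-KRRRAL-pS-VASLPGL peptide. ADP product measured by ADP-Glo luminescence after 1 h ATP depletion and 1 h detection at 22° C.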

In the next assay the target is CSNK1D (Homo sapiens (Human), UniProt P48730). Description: CSNK1D Assay (ADP-Glo, 1 μM ATP). The following applies: median, read-out: CSNK1D IC50 [mol/l] (median). The gist of the method:
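Enzyme preincubated with compound 15 min at 22° C in 50 mM HEPES pH 7.5 buffer with 10 mM MgCl2, 1 mM DTT; kinase reaction run at 1 μM ATP with biotinylated peptide substrate. ADP formed was detected by ADP-Glo luminescence as the measure of activity.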

For assay [1], the target named is wild-type Epidermal Growth Factor Receptor (EGFR) (Homo sapiens (Human), UniProt P00533). Put plainly: WT-EGFR Kinase Assay (TR-FRET, 2 mM ATP). The gist of the method:
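GST-tagged human EGFR (R669–A1210, Sf9-expressed) preincubated 15 min at 22° C with compound in pH 7.0 Hepes/MgCl2 buffer, then reacted at 2 mM ATP with a biotinylated peptide substrate. Phosphorylation detected by TR-FRET (streptavidin-XL665, Tb-cryptate anti-phosphotyrosine) as the 665/620 nm emission ratio.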
On the technique in general: TR-FRET usually uses a lanthanide donor and a delayed reading to cut background.

[2] abbreviates: read-out: EGFR Wildtyp 2 mM ATP IC50 [mol/l] (median), median or individual measurements.
The mark [3] stands for this setting: EGFR Wildtyp 2 mM ATP IC50 [mol/l] (median), median or individual measurements.

Read-outs that look alike come from different tables or passages of the source. A value given as a limit tells only on which side of the number the result lay.

Sequence of wild-type Epidermal Growth Factor Receptor (EGFR) (P00533 669-1210): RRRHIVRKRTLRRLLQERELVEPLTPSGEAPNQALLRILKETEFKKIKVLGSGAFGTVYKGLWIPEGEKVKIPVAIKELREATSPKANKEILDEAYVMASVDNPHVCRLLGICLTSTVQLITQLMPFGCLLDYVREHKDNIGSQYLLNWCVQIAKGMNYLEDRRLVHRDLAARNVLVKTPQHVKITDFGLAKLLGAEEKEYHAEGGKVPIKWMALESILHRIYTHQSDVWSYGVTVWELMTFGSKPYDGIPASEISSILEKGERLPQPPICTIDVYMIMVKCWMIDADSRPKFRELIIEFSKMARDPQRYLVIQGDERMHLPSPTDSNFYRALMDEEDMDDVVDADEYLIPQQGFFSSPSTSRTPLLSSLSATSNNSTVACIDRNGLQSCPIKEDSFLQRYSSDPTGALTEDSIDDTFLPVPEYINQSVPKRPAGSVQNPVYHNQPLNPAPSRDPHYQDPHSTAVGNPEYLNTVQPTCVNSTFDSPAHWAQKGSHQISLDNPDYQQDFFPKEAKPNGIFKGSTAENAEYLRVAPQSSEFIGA
Sequence of CSNK1A1 (P48729 whole entry): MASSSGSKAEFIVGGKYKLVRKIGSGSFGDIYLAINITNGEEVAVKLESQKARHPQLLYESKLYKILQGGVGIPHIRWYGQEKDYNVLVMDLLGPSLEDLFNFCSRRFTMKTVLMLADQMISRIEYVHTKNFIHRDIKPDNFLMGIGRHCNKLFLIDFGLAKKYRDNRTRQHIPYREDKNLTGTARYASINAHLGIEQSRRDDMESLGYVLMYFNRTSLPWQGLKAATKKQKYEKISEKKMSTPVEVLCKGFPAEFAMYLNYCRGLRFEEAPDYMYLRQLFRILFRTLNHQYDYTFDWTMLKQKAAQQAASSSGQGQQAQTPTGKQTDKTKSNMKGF
Sequence of CSNK1D (P48730 whole entry): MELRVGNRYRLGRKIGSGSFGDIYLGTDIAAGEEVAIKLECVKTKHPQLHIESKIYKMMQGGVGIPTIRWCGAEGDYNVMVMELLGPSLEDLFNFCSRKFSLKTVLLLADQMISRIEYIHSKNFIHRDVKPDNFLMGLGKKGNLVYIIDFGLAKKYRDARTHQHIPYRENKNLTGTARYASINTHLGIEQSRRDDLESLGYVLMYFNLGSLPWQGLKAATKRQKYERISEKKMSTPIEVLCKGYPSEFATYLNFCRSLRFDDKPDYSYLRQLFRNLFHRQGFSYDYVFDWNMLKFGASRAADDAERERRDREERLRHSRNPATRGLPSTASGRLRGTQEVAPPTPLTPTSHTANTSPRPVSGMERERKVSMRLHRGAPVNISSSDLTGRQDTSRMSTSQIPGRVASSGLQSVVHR

For the molecule `CC1(C)Cc2[nH]c(-c3ccnc(NC(=O)Cc4ccc(F)cc4)c3)c(-c3ccc(F)cc3)c2C(=O)N1` [Example 83, 2-(4-fluorophenyl)-N-{4-[3-(4-fluorophenyl)-6,6-dimethyl-4-oxo-4,5,6,7-tetrahydro-1H-pyrrolo[3,2-c]pyridin-2-yl]pyridin-2-yl}acetamide], the IC50 was 1.9 nM at CSNK1A1, 3.5 nM on CSNK1D and above 20000 nM in assay [1] (setting [2]).
Turning to `CC1(C)Cc2[nH]c(-c3ccnc(NC(=O)Cc4ccc(F)cc4)c3)c(-c3cccc(F)c3)c2C(=O)N1` [Example 85, 2-(4-fluorophenyl)-N-{4-[3-(3-fluorophenyl)-6,6-dimethyl-4-oxo-4,5,6,7-tetrahydro-1H-pyrrolo[3,2-c]pyridin-2-yl]pyridin-2-yl}acetamide], the IC50 on CSNK1A1 is 1.9 nM; on CSNK1D it was 3.9 nM; in assay [1] (setting [2]), above 5710 nM.
For `Cc1ccc(-c2c(-c3ccnc(NC(=O)Cc4ccc(F)cc4)c3)[nH]c3c2C(=O)NC(C)(C)C3)cc1` [Example 92, N-{4-[6,6-dimethyl-3-(4-methylphenyl)-4-oxo-4,5,6,7-tetrahydro-1H-pyrrolo[3,2-c]pyridin-2-yl]pyridin-2-yl}-2-(4-fluorophenyl)acetamide], the values for the IC50 (on CSNK1A1; at CSNK1D; in assay [1] (setting [2])) were 4.5 nM, 5.7 nM and above 20000 nM, respectively.
For `CC(C(=O)Nc1cc(-c2[nH]c3c(c2-c2cccnc2)C(=O)NC(C)(C)C3)ccn1)c1ccc(F)cc1` (single isomer, unassigned) [Example 98, N-{4-[6,6-dimethyl-4-oxo-3-(pyridin-3-yl)-4,5,6,7-tetrahydro-1H-pyrrolo[3,2-c]pyridin-2-yl]pyridin-2-yl}-2-(4-fluorophenyl)propanamide], the IC50 was 71 nM at CSNK1A1, 19 nM on CSNK1D and above 20000 nM in assay [1] (setting [3]).
The corresponding values for `Cn1cc(CC(F)F)c2[nH]c(-c3ccnc(NC(=O)C(CC(F)F)c4ccc(F)cc4)c3)c(-c3ccccc3)c2c1=O` (single isomer, unassigned) [Example 148, N-{4-[7-(2,2-difluoroethyl)-5-methyl-4-oxo-3-phenyl-4,5-dihydro-1H-pyrrolo[3,2-c]pyridin-2-yl]pyridin-2-yl}-4,4-difluoro-2-(4-fluorophenyl)butanamide] are 12 nM, 6.8 nM and 8750 nM.
`COCCNC(=O)c1ccc(CC(=O)Nc2cc(-c3[nH]c4c(c3-c3ccc(F)cc3)C(=O)N(C)CC4)ccn2)cc1` [Example 140, 4-[2-({4-[3-(4-fluorophenyl)-5-methyl-4-oxo-4,5,6,7-tetrahydro-1H-pyrrolo[3,2-c]pyridin-2-yl]pyridin-2-yl}amino)-2-oxoethyl]-N-(2-methoxyethyl)benzamide]: the IC50 is 1.6 nM on CSNK1A1, 1.8 nM on CSNK1D and above 20000 nM in assay [1] (setting [2]).
Take `Cn1cc(CC(F)(F)F)c2[nH]c(-c3ccnc(NC(=O)C(CC(F)F)c4ccc(F)cc4)c3)c(-c3ccccc3)c2c1=O` (single isomer, unassigned; (-)) [Example 19, (−)-4,4-difluoro-2-(4-fluorophenyl)-N-{4-[5-methyl-4-oxo-3-phenyl-7-(2,2,2-trifluoroethyl)-4,5-dihydro-1H-pyrrolo[3,2-c]pyridin-2-yl]pyridin-2-yl}butanamide]: the IC50 was 22 nM on CSNK1A1 and 14 nM on CSNK1D.
For the molecule `Cc1cn(C)c(=O)c2c(-c3ccc(F)cc3)c(-c3ccnc(NC(=O)C(CC(F)F)c4ccc(F)cc4)c3)[nH]c12` (single isomer, unassigned; (-)) [Example 35, (−)-4,4-difluoro-2-(4-fluorophenyl)-N-{4-[3-(4-fluorophenyl)-5,7-dimethyl-4-oxo-4,5-dihydro-1H-pyrrolo[3,2-c]pyridin-2-yl]pyridin-2-yl}butanamide], the IC50 on CSNK1A1 was 66 nM; at CSNK1D it was 22 nM.
Turning to `CC(C(=O)Nc1cc(-c2[nH]c3c(c2-c2ccccc2)C(=O)N(C)CC3CC2CC2)ccn1)c1ccc(F)cc1` (centres unmarked) [Example 57, N-{4-[7-(cyclopropylmethyl)-5-methyl-4-oxo-3-phenyl-4,5,6,7-tetrahydro-1H-pyrrolo[3,2-c]pyridin-2-yl]pyridin-2-yl}-2-(4-fluorophenyl)propanamide], the IC50 worked out at 4.5 nM on CSNK1A1 and 2.9 nM at CSNK1D.
For `CN1CC(CC2CC2)c2[nH]c(-c3ccnc(NC(=O)Cc4ccc(F)cc4)c3)c(-c3ccccc3)c2C1=O` (racemic) [Example 55, N-{4-[7-(cyclopropylmethyl)-5-methyl-4-oxo-3-phenyl-4,5,6,7-tetrahydro-1H-pyrrolo[3,2-c]pyridin-2-yl]pyridin-2-yl}-2-(4-fluorophenyl)acetamide] the same measures were 2 nM and 2.2 nM.
Consider `CC(C(=O)Nc1cc(-c2[nH]c3c(CC(F)(F)F)cn(C)c(=O)c3c2-c2ccccc2)ccn1)c1ccc(F)cc1` (racemic) [Example 14, 2-(4-fluorophenyl)-N-{4-[5-methyl-4-oxo-3-phenyl-7-(2,2,2-trifluoroethyl)-4,5-dihydro-1H-pyrrolo[3,2-c]pyridin-2-yl]pyridin-2-yl}propanamide], for which the IC50 on CSNK1A1 amounted to 4.7 nM; at CSNK1D, 2.7 nM.
With `CN1CCc2[nH]c(-c3ccnc(NC(=O)Cc4ccc(F)cc4)c3)c(-c3cccnc3)c2C1=O` [Example 12, 2-(4-fluorophenyl)-N-{4-[5-methyl-4-oxo-3-(pyridin-3-yl)-4,5,6,7-tetrahydro-1H-pyrrolo[3,2-c]pyridin-2-yl]pyridin-2-yl}acetamide], the IC50 on CSNK1A1 was found to be 10 nM; on CSNK1D it was 13 nM.
As for `CN1CCc2[nH]c(-c3ccnc(NC(=O)C(CC(F)F)c4ccc(F)cc4)c3)c(-c3cccnc3)c2C1=O` (single isomer, unassigned) [Example 10, 4,4-difluoro-2-(4-fluorophenyl)-N-{4-[5-methyl-4-oxo-3-(pyridin-3-yl)-4,5,6,7-tetrahydro-1H-pyrrolo[3,2-c]pyridin-2-yl]pyridin-2-yl}butanamide], the IC50 at CSNK1A1 was 110 nM; at CSNK1D it was 64 nM.
For `CC(C(=O)Nc1cc(-c2[nH]c3c(c2-c2ccccc2)C(=O)NCC3(C)C)ccn1)c1ccc(F)cc1` (single isomer, unassigned) [Example 48, N-[4-(7,7-dimethyl-4-oxo-3-phenyl-4,5,6,7-tetrahydro-1H-pyrrolo[3,2-c]pyridin-2-yl)pyridin-2-yl]-2-(4-fluorophenyl)propanamide], the IC50 at CSNK1A1 was found to be 1.8 nM; at CSNK1D, 2.9 nM.
For `CN1CCc2[nH]c(-c3ccnc(NC(=O)C(CC(F)F)c4ccc(F)cc4)c3)c(-c3ccccc3)c2C1=O` (single isomer, unassigned) [Example 3, 4,4-difluoro-2-(4-fluorophenyl)-N-[4-(5-methyl-4-oxo-3-phenyl-4,5,6,7-tetrahydro-1H-pyrrolo[3,2-c]pyridin-2-yl)pyridin-2-yl]butanamide] the same measures were 4.7 nM and 5.9 nM.
As for `Cc1cn(C)c(=O)c2c(-c3ccccc3)c(-c3ccnc(NC(=O)C(C)c4ccc(F)cc4)c3)[nH]c12` (racemic) [Example 38, N-[4-(5,7-dimethyl-4-oxo-3-phenyl-4,5-dihydro-1H-pyrrolo[3,2-c]pyridin-2-yl)pyridin-2-yl]-2-(4-fluorophenyl)propanamide], the IC50 on CSNK1A1 was 7.8 nM; on CSNK1D it was 7.1 nM.
